# In US10561616B2, “Sustained release dosage forms for a JAK1 inhibitor” (Incyte Corporation, priority 2013, dated 2020):
# Columns and labels:
# JAK1 (IL-6) = experiment: PK derived JAK1 (IL-6) inhibition by dose regimen
# Text: (§1) It is believed that this efficacy/side-effect profile may be due to the QD dose achieving maximal JAK1 signaling (tied to efficacy) with low JAK2 inhibition at the trough, as JAK2 signaling is tied to hematopoiesis. This hypothesis is supported by the PK derived JAK1 (IL-6) and JAK2 (TPO) inhibition data for the compound of Formula at various doses (Table 7).
# JAK2 (TPO) = experiment: PK derived JAK2 (TPO) inhibition by dose regimen
# Text: as §1
# [1] = system: patients with plaque psoriasis; experiment: Placebo controlled study in plaque psoriasis, 28 days (sPGA, PASI 50); format: in vivo, human
# Method: A double-blind (sponsor unblinded), randomized, placebo controlled study was conducted in approximately 48 subjects treated for 28 days. Eligibility requirements included: active plaque psoriasis for at least 6 months at screening; body surface area (BSA) of plaque psoriasis of ≥5%; psoriasis area and severity index (PASI) score of ≥5; static physician's global assessment (sPGA) score of ≥3; inadequate response to topical therapies; innovative design allowing rapid progress between doses, with conservative safety assessment. […] Once the 4th subject (block of 3 active 1 PBO) completed 28 days administration without a Grade 3 or higher AE, the next group of 12 subjects initiated treatment with the next highest dose; while the first 4 subjects in this group are treated for 28 days, the 1st group is filled 60 subjects with moderate to severe psoriasis were randomized. […] A sequential method of recruitment was used, increasing from the lowest dose to the highest, each after the completion of 28 days for the first four subjects in the previous dose. The results at 28 days are show in Table 8 (PASI 50 is Psoriasis Area and Severity Index). […] The 5 mg tofacitinib dose is the approved dosage level for RA for safety reasons in the US.
# [2] = target: T1, human JAK1 (a.a. 837-1142) (Homo sapiens, UniProt P23458); experiment: In vitro JAK kinase assay (HTRF), JAK1; format: biochemical; conditions: measured at 1 mM ATP
# T1 construct: human JAK1 (a.a. 837-1142); His tag (N); made in house; host or cells: insect cells (baculovirus)
# Method: The compound of Formula I herein was tested for inhibitory activity of JAK targets according to the following in vitro assay described in Park et al., Analytical Biochemistry 1999, 269, 94-104. The catalytic domains of human JAK1 (a.a. 837-1142) and JAK2 (a.a. 828-1132) with an N-terminal His tag were expressed using baculovirus in insect cells and purified. The catalytic activity of JAK1 and JAK2 was assayed by measuring the phosphorylation of a biotinylated peptide. The phosphorylated peptide was detected by homogenous time resolved fluorescence (HTRF). IC50s of compounds were measured for each kinase in the 40 microL reactions that contain the enzyme, ATP and 500 nM peptide in 50 mM Tris (pH 7.8) buffer with 100 mM NaCl, 5 mM DTT, and 0.1 mg/mL (0.01%) BSA. For the 1 mM IC50 measurements, ATP concentration in the reactions was 1 mM. Reactions were carried out at room temperature for 1 hr and then stopped with 20 μL 45 mM EDTA, 300 nM SA-APC, 6 nM Eu-Py20 in assay buffer (Perkin Elmer, Boston, Mass.). Binding to the Europium labeled antibody took place for 40 minutes and HTRF signal was measured on a Fusion plate reader (Perkin Elmer, Boston, Mass.).
# RA = conditions: 5 mg BID; 3 months; cited from earlier work
# psoriasis = conditions: 5 mg; 12 weeks; cited from earlier work
# T1 sequence (P23458 849-1154): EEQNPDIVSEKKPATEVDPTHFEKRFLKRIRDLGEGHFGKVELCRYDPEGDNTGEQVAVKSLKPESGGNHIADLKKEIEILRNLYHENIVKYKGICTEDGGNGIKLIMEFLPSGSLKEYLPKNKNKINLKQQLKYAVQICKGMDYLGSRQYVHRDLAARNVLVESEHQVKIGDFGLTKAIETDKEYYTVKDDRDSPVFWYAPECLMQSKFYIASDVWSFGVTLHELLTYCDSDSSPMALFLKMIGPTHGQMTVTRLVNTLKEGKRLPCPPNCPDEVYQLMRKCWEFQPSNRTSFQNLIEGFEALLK
smiles,measurement,setting,value
"N#CCC1(n2cc(-c3ncnc4[nH]ccc34)cn2)CN(C2CCN(C(=O)c3ccnc(C(F)(F)F)c3F)CC2)C1 [compound of Formula I, {1-{1-[3-fluoro-2-(trifluoromethyl)isonicotinoyl]piperidin-4-yl}-3-[4-(7H-pyrrolo[2,3-d]pyrimidin-4-yl)-1H-pyrazol-1-yl]azetidin-3-yl}acetonitrile]",Average IL-6 inhibition,JAK1 (IL-6); 100 mg BID,44%
same,Trough IL-6 inhibition,JAK1 (IL-6); 100 mg BID,22%
same,Average IL-6 inhibition,JAK1 (IL-6); 100 mg QD,30%
same,Trough IL-6 inhibition,JAK1 (IL-6); 100 mg QD,7%
same,Average IL-6 inhibition,JAK1 (IL-6); 200 mg BID,64%
same,Trough IL-6 inhibition,JAK1 (IL-6); 200 mg BID,52%
same,Average IL-6 inhibition,JAK1 (IL-6); 200 mg QD,39%
same,Trough IL-6 inhibition,JAK1 (IL-6); 200 mg QD,11%
same,Average IL-6 inhibition,JAK1 (IL-6); 300 mg QD,47%
same,Trough IL-6 inhibition,JAK1 (IL-6); 300 mg QD,16%
same,Average IL-6 inhibition,JAK1 (IL-6); 400 mg BID,69%
same,Trough IL-6 inhibition,JAK1 (IL-6); 400 mg BID,56%
same,Average IL-6 inhibition,JAK1 (IL-6); 600 mg QD,61%
same,Trough IL-6 inhibition,JAK1 (IL-6); 600 mg QD,31%
same,Average TPO inhibition,JAK2 (TPO); 100 mg BID,11%
same,Trough TPO inhibition,JAK2 (TPO); 100 mg BID,2%
same,Average TPO inhibition,JAK2 (TPO); 100 mg QD,7%
same,Trough TPO inhibition,JAK2 (TPO); 100 mg QD,<1%
same,Average TPO inhibition,JAK2 (TPO); 200 mg BID,24%
same,Trough TPO inhibition,JAK2 (TPO); 200 mg BID,13%
same,Average TPO inhibition,JAK2 (TPO); 200 mg QD,11%
same,Trough TPO inhibition,JAK2 (TPO); 200 mg QD,<1%
same,Average TPO inhibition,JAK2 (TPO); 300 mg QD,18%
same,Trough TPO inhibition,JAK2 (TPO); 300 mg QD,1%
same,Average TPO inhibition,JAK2 (TPO); 400 mg BID,33%
same,Trough TPO inhibition,JAK2 (TPO); 400 mg BID,16%
same,Average TPO inhibition,JAK2 (TPO); 600 mg QD,36%
same,Trough TPO inhibition,JAK2 (TPO); 600 mg QD,4%
same,% PASI 50,[1]; 100 mg BID (as headed),22.2%
same,% sPGA (clear or minimal),[1]; 100 mg BID (as headed),11.1%
same,Mean % change sPGA,[1]; 100 mg BID (as headed),−22.2%
same,% PASI 50,[1]; 200 mg BID,44.4%
same,% sPGA (clear or minimal),[1]; 200 mg BID,33.3%
same,Mean % change sPGA,[1]; 200 mg BID,−35.2%
same,% PASI 50,[1]; 200 mg QD,66.7%
same,% sPGA (clear or minimal),[1]; 200 mg QD,22.2%
same,Mean % change sPGA,[1]; 200 mg QD,−29.4%
same,% PASI 50,[1]; 600 mg QD,81.8%
same,% sPGA (clear or minimal),[1]; 600 mg QD,45.5%
same,Mean % change sPGA,[1]; 600 mg QD,−42.4%
same,IC50,[2],≤ 5 nM
C[C@@H]1CCN(C(=O)CC#N)C[C@@H]1N(C)c1ncnc2[nH]ccc12.O=C(O)CC(O)(CC(=O)O)C(=O)O [tofacitinib citrate],ACR20,RA,59%
same,ACR50,RA,31%
same,ACR70,RA,15%
same,PASI 50 score,psoriasis,65.3%
